In US8906826B2, “Herbicidal compositions comprising 4-amino-3-chloro-5-fluoro-6-(4-chloro-2-fluoro-3-methoxyphenyl) pyridine-2-carboxylic acid or a derivative thereof and imidazolinones” (Dow AgroSciences, LLC, priority 2012, dated 2014):
Values joined by “and” are separate entries in the source; they are usually repeats but may differ in a detail not shown here. Equal values may be shown once.

Assays:
[1] = test system: DIGSA; assay: Postemergence foliar-applied, direct seeded rice weeds (Example I); type: in vivo, Digitaria sanguinalis (L.) Scop.
From the text: (§1) Seeds or nutlets of the desired test plant species were planted in a soil matrix prepared by mixing a loam or sandy loam soil (e.g., 28.6 percent silt, 18.8 percent clay, and 52.6 percent sand, with a pH of about 5.8 and an organic matter content of about 1.8 percent) and calcareous grit in an 80 to 20 ratio. The soil matrix was contained in plastic pots with a volume of 1 quart and a surface area of 83.6 cm^2. When required to ensure good germination and healthy plants, a fungicide treatment and/or other chemical or physical treatment was applied. The plants were grown for 8-22 days in a greenhouse with an approximate 14 h photoperiod which was maintained at about 29° C. during the day and 26° C. during the night. Nutrients (Peters Excel® 15-5-15 5-Ca 2-Mg and iron chelate) were applied in the irrigation solution as needed and water was added on a regular basis. Supplemental lighting was provided with overhead metal halide 1000-Watt lamps as necessary. The plants were employed for testing when they reached the first through fourth true leaf stage.
(§2) Treatments consisted of the acid or esters of 4-amino-3-chloro-5-fluoro-6-(4-chloro-2-fluoro-3-methoxy-phenyl)pyridine-2-carboxylic acid (Compound A), each formulated as an SC (suspension concentrate), and various herbicidal components alone and in combination. Forms of compound A were applied on an acid equivalent basis.
(§3) Other herbicidal components were applied on an acid equivalent basis and include acetolactate synthase (ALS)-inhibiting herbicides (imidazolinone chemical class) imazethapyr ammonium salt formulated as Newpath®, imazamox ammonium salt formulated as Beyond®, imazapic ammonium salt formulated as Plateau®, imazapyr isopropylamine salt formulated as Arsenal®, imazamethabenz-methyl (technical material) and imazaquin isopropylamine salt formulated as Scepter®/Imagine®.
(§4) Treatment requirements were calculated based upon the rates being tested, the concentration of active ingredient or acid equivalent in the formulation, and a 12 mL application volume at a rate of 187 L/ha.
For treatments comprised of formulated compounds, measured amounts of compounds were placed individually in 25 mL glass vials and diluted in a volume of 1.25% (v/v) Agri-Dex® crop oil concentrated to obtain 12× stock solutions. […]
(§5) For treatments comprised of formulated and technical compounds, weighed amounts of the technical materials were placed individually in 25 mL glass vials and dissolved in a volume of 97:3 v/v acetone/DMSO to obtain 12× stock solutions, and measured amounts of the formulated compounds were placed individually in 25 mL glass vials and diluted in a volume of 1.5% (v/v) crop oil concentrate or water to obtain 12× stock solutions. […]

[2] = test system: CYPIR; assay: as above; type: in vivo, Cyperus iria L.
From the text: as §1, §2, §3, §4
(§6) For treatments comprised of formulated compounds, measured amounts of compounds were placed individually in 25 mL glass vials and diluted in a volume of 1.25% (v/v) Agri-Dex® crop oil concentrated to obtain 12× stock solutions. […] Application solutions were prepared by adding an appropriate amount of each stock solution (e.g., 1 mL) and diluted to the appropriate final concentrations with the addition of 10 mL of an aqueous mixture of 1.25% (v/v) crop oil concentrate so that the final spray solutions contained 1.25+/−0.05% (v/v) crop oil concentrate.
For treatments comprised of technical compounds, weighed amounts can be placed individually in 25 mL glass vials and dissolved in a volume of 97:3 v/v acetone/DMSO to obtain 12× stock solutions. […] Application solutions can be prepared by adding an appropriate amount of each stock solution (e.g., 1 mL) and diluted to the appropriate final concentrations with the addition of 10 mL of an aqueous mixture of 1.5% (v/v) crop oil concentrate so that the final spray solutions contain 1.25% (v/v) crop oil concentrate. When technical materials are used, the concentrated stock solutions can be added to the spray solutions so that the final acetone and DMSO concentrations of the application solutions are 16.2% and 0.5%, respectively.
as §5

[3] = test system: ALOMY; assay: Postemergence foliar-applied, general weed control (Example III); type: in vivo, Alopecurus myosuroides Huds.
Procedure: Seeds or nutlets of the desired test plant species were planted in Sun Gro Metro-Mix® 360 planting mixture, which typically has a pH of about 6.0 to about 6.8 and an organic matter content of about 30 percent, in plastic pots with a surface area of 84.6 cm^2 and a volume of 560 cubic centimeters (cm^3). When required to ensure good germination and healthy plants, a fungicide treatment and/or other chemical or physical treatment was applied. The plants were grown for 7-31 days (d) in a greenhouse with an approximate 15 hour (h) photoperiod which was maintained at about 23-29° C. during the day and about 22-28° C. during the night. Nutrients (Peters Excel® 15-5-15 5-Ca 2-Mg) and water were added on a regular basis and supplemental lighting was provided with overhead metal halide 1000-Watt lamps as necessary. The plants were employed for testing when they reached the first, second, or third true leaf stage.
as §4
Treatments consisted of the acid or esters of 4-amino-3-chloro-5-fluoro-6-(4-chloro-2-fluoro-3-methoxy-phenyl)pyridine-2-carboxylic acid (Compound A), each formulated as an SC, and various herbicidal components alone and in combination. Forms of compound A were applied on an acid equivalent basis.
Other herbicidal components were applied on an acid equivalent basis and included acetolactate synthase (ALS)-inhibiting herbicides (imidazolinone chemical class) imazethapyr ammonium salt formulated as Newpath®, and imazapic ammonium salt formulated as Plateau®.
as §6, with “(typically” for “(e.g.,”
All stock solutions and applications solutions were visually inspected for compound compatibility prior to application. […]
The treated plants and control plants were placed in a greenhouse as described above and watered by sub-irrigation to prevent wash-off of the test compounds. After approximately 3 weeks, the condition of the test plants as compared with that of the untreated plants was determined visually and scored on a scale of 0 to 100 percent where 0 corresponds to no injury or growth inhibition and 100 corresponds to complete kill. […]

COCc1cnc(C2=NC(C)(C(C)C)C(=O)N2)c(C(=O)O)c1.N (racemic) [Imazamox ammonium, ammonium (±)-2-[4,5-dihydro-4-methyl-4-(1-methylethyl)-5-oxo-1H-imidazol-2-yl]-5-(methoxymethyl)-3-pyridinecarboxylate]
Visual Weed Control (%) - 20 DAA DIGSA Obs ([1]; Imazamox ammonium 44.8 gae/ha): 60%
Visual Weed Control (%) - 25 DAA CYPIR Obs ([2]; Imazamox ammonium 11.2 gae/ha): 20%
Visual Weed Control (%) - 25 DAA CYPIR Obs ([2]; Imazamox ammonium 22.4 gae/ha): 70%

Cc1cnc(C2=NC(C)(C(C)C)C(=O)N2)c(C(=O)O)c1.N (racemic) [Imazapic ammonium, ammonium (±)-2-[4,5-dihydro-4-methyl-4-(1-methylethyl)-5-oxo-1H-imidazol-2-yl]-5-methyl-3-pyridinecarboxylic acid]
Visual Weed Control (%) - 22 DAA CYPIR Obs ([2]; Imazapic ammonium 7 gae/ha): 20%
Visual Control (%) - 19 DAA ALOMY Obs ([3]; Imazapic ammonium 35 gae/ha): 30%
Visual Weed Control (%) - 19 DAA ALOMY Obs ([3]; Imazapic ammonium 35 gae/ha): 30%

CCc1cnc(C2=NC(C)(C(C)C)C(=O)N2)c(C(=O)O)c1.N (racemic) [Imazethapyr ammonium, ammonium (±)-2-[4,5-dihydro-4-methyl-4-(1-methylethyl)-5-oxo-1H-imidazol-2-yl]-5-ethyl-3-pyridinecarboxylate]
Visual Weed Control (%) - 20 DAA DIGSA Obs ([1]; Imazethapyr ammonium 70 gae/ha): 80%

COc1c(Cl)ccc(-c2nc(C(=O)O)c(Cl)c(N)c2F)c1F [Compound A Acid, 4-amino-3-chloro-6-(4-chloro-2-fluoro-3-methoxyphenyl)-5-fluoropyridine-2-carboxylic acid]
Visual Weed Control (%) - 20 DAA DIGSA Obs ([1]; Compound A Acid 19.3 gae/ha): 13%
Visual Weed Control (%) - 19 DAA ALOMY Obs ([3]; Compound A Acid 29 gae/ha): 10%

COc1c(Cl)ccc(-c2nc(C(=O)OCc3ccccc3)c(Cl)c(N)c2F)c1F [Compound A Benzyl Ester, benzyl ester of 4-amino-3-chloro-5-fluoro-6-(4-chloro-2-fluoro-3-methoxy-phenyl)pyridine-2-carboxylic acid]
Visual Weed Control (%) - 22 DAA CYPIR Obs ([2]; Compound A Benzyl Ester 8 gae/ha): 20% and 30%
Visual Weed Control (%) - 25 DAA CYPIR Obs ([2]; Compound A Benzyl Ester 8.75 gae/ha): 75%
Visual Weed Control (%) - 22 DAA CYPIR Obs ([2]; Compound A Benzyl Ester 16 gae/ha): 85%
Visual Control (%) - 19 DAA ALOMY Obs ([3]; Compound A Benzyl Ester 24 gae/ha): 20%
